Measurements: ChEMBL document CHEMBL5506059, “Cyanomethylquinolones as a New Class of Potential Multitargeting Broad-Spectrum Antibacterial Agents” (J Med Chem, 2024)
In brackets after ≈: the same amount, converted by molar mass. Activity calls are given as the source filed them. No cut-off for these calls is given here.

Key:
[1] = test system: Pseudomonas aeruginosa; assay: Antibacterial activity against Pseudomonas aeruginosa clinical isolate assessed as inhibition of bacterial growth incubated for 24 hrs; assay type: functional
[2] = test system: Staphylococcus aureus; assay: Antibacterial activity against Staphylococcus aureus CMCC(B)26003 assessed as inhibition of bacterial growth incubated for 24 hrs; assay type: functional
[3] = test system: Staphylococcus aureus; assay: Antibacterial activity against Staphylococcus aureus CMCC(B)26001 assessed as inhibition of bacterial growth incubated for 24 hrs; assay type: functional
[4] = test system: Enterococcus faecalis; assay: Antibacterial activity against Enterococcus faecalis clinical isolate assessed as inhibition of bacterial growth incubated for 24 hrs; assay type: functional
[5] = test system: Streptococcus pyogenes; assay: Antibacterial activity against Streptococcus pyogenes ATCC 19615 assessed as inhibition of bacterial growth incubated for 24 hrs; assay type: functional
[6] = test system: Staphylococcus aureus; assay: Antibacterial activity against Staphylococcus aureus ATCC 29213 assessed as inhibition of bacterial growth incubated for 24 hrs; assay type: functional
[7] = test system: Enterococcus faecium; assay: Antibacterial activity against Enterococcus faecium ATCC 19434 assessed as inhibition of bacterial growth incubated for 24 hrs; assay type: functional
[8] = test system: Staphylococcus aureus; assay: Antibacterial activity against Staphylococcus aureus ATCC 25923 assessed as inhibition of bacterial growth incubated for 24 hrs; assay type: functional
[9] = test system: Klebsiella pneumoniae; assay: Antibacterial activity against Klebsiella pneumoniae clinical isolate assessed as inhibition of bacterial growth incubated for 24 hrs; assay type: functional
[10] = test system: Staphylococcus aureus; assay: Antibacterial activity against methicillin resistant Staphylococcus aureus clinical isolate assessed as inhibition of bacterial growth incubated for 24 hrs; assay type: functional
[11] = test system: Pseudomonas aeruginosa; assay: Antibacterial activity against Pseudomonas aeruginosa ATCC 27853 assessed as inhibition of bacterial growth incubated for 24 hrs; assay type: functional
[12] = test system: Staphylococcus aureus; assay: Antibacterial activity against Staphylococcus aureus ATCC 12600 assessed as inhibition of bacterial growth incubated for 24 hrs; assay type: functional
[13] = test system: Escherichia coli; assay: Antibacterial activity against Escherichia coli clinical isolate assessed as inhibition of bacterial growth incubated for 24 hrs; assay type: functional
[14] = test system: Enterococcus faecalis; assay: Antibacterial activity against vancomycin-resistant Enterococcus faecalis clinical isolate p1-2007226001 assessed as inhibition of bacterial growth incubated for 24 hrs; assay type: functional
[15] = test system: Staphylococcus aureus; assay: Resistance development in ciprofloxacin-treated methicillin resistant Staphylococcus aureus assessed as increase in MIC measured after 15th generation; assay type: functional, organism-based
[16] = test system: Staphylococcus epidermidis; assay: Antibacterial activity against Staphylococcus epidermidis ATCC 12228 assessed as inhibition of bacterial growth incubated for 24 hrs; assay type: functional
[17] = test system: Pseudomonas aeruginosa; assay: Resistance development in ciprofloxacin-treated Pseudomonas aeruginosa assessed as increase in MIC measured after 15th generation; assay type: functional, organism-based
[18] = test system: Staphylococcus aureus; assay: Antibacterial activity against methicillin-resistant Staphylococcus aureus ATCC 43300 assessed as inhibition of bacterial growth incubated for 24 hrs; assay type: functional
[19] = test system: Enterococcus faecalis; assay: Antibacterial activity against vancomycin-resistant Enterococcus faecalis clinical isolate p1-2007225053 assessed as inhibition of bacterial growth incubated for 24 hrs; assay type: functional
[20] = test system: Streptococcus pneumoniae; assay: Antibacterial activity against Streptococcus pneumoniae ATCC 6305 assessed as inhibition of bacterial growth incubated for 24 hrs; assay type: functional
[21] = test system: Staphylococcus aureus; assay: Antibacterial activity against Staphylococcus aureus clinical isolate assessed as inhibition of bacterial growth incubated for 24 hrs; assay type: functional
[22] = test system: Escherichia coli; assay: Antibacterial activity against Escherichia coli ATCC 25922 assessed as inhibition of bacterial growth incubated for 24 hrs; assay type: functional
[23] = test system: Acinetobacter baumannii; assay: Antibacterial activity against Acinetobacter baumannii clinical isolate assessed as inhibition of bacterial growth incubated for 24 hrs; assay type: functional
[24] = test system: Staphylococcus aureus; assay: Resistance development in ciprofloxacin-treated Staphylococcus aureus ATCC 6538 assessed as increase in MIC measured after 15th generation; assay type: functional, organism-based
[25] = test system: Pseudomonas aeruginosa; assay: Resistance development in ciprofloxacin-treated Pseudomonas aeruginosa ATCC 27853 assessed as increase in MIC measured after 15th generation; assay type: functional, organism-based
[26] = test system: Staphylococcus aureus; assay: Antibacterial activity against Staphylococcus aureus ATCC 6538 assessed as inhibition of bacterial growth incubated for 24 hrs; assay type: functional
[27] = test system: Erythrocyte; assay: Hemolytic activity in human Red blood cells assessed as concentration required for 5% hemolysis measured after 1.5 hrs by absorbance based assay; assay type: toxicity, cell-based

Row | Structure (SMILES) | MIC [1] | MIC [2] | MIC [3] | MIC [4] | MIC [5] | MIC [6] | MIC [7] | MIC [8] | MIC [9] | MIC [10] | MIC [11] | MIC [12] | MIC [13] | MIC [14] | MIC [16] | MIC [18] | MIC [19] | MIC [20] | MIC [21] | MIC [22] | also measured
1 | CCn1cc(C(=O)O)c(=O)c2cc(F)c(N3CCNCC3)cc21 [NORFLOXACIN] | 8 mg/L (≈ 25.1 µM) | 0.5 mg/L (≈ 1.57 µM) | 0.25 mg/L (≈ 0.783 µM) | 8 mg/L (≈ 25.1 µM) | 32 mg/L (≈ 100 µM) | 4 mg/L (≈ 12.5 µM) | 4 mg/L (≈ 12.5 µM) | 8 mg/L (≈ 25.1 µM) | 8 mg/L (≈ 25.1 µM) | 8 mg/L (≈ 25.1 µM) | 8 mg/L (≈ 25.1 µM) | 2 mg/L (≈ 6.26 µM) | 4 mg/L (≈ 12.5 µM) | 8 mg/L (≈ 25.1 µM) | 1 mg/L (≈ 3.13 µM) | 4 mg/L (≈ 12.5 µM) | 1 mg/L (≈ 3.13 µM) | 0.5 mg/L (≈ 1.57 µM) | 8 mg/L (≈ 25.1 µM) | 4 mg/L (≈ 12.5 µM) | Activity [15]: Active; Activity [17]: Active; MIC [23]: 2 mg/L (≈ 6.26 µM); Activity [24]: Active; Activity [25]: Active; MIC [26]: 1 mg/L (≈ 3.13 µM)
2 | CCCCCCCCn1cc(C(=O)O)c(=O)c2cc(F)c(CC#N)cc21 | 2 mg/L (≈ 5.58 µM) | 2 mg/L (≈ 5.58 µM) | 2 mg/L (≈ 5.58 µM) | 256 mg/L (≈ 714 µM) | 2 mg/L (≈ 5.58 µM) | 256 mg/L (≈ 714 µM) | 128 mg/L (≈ 357 µM) | 1 mg/L (≈ 2.79 µM) | 256 mg/L (≈ 714 µM) | 256 mg/L (≈ 714 µM) | 256 mg/L (≈ 714 µM) | 32 mg/L (≈ 89.3 µM) | 0.5 mg/L (≈ 1.4 µM) | 128 mg/L (≈ 357 µM) | 128 mg/L (≈ 357 µM) | 64 mg/L (≈ 179 µM) | 256 mg/L (≈ 714 µM) | 64 mg/L (≈ 179 µM) | 256 mg/L (≈ 714 µM) | 256 mg/L (≈ 714 µM) | MIC [23]: 256 mg/L (≈ 714 µM); HC5 [27]: 258 µg/mL; MIC [26]: 64 mg/L (≈ 179 µM)
